From patent US20220169643A1, “ESTROGEN RECEPTOR DEGRADING PROTACS” (AstraZeneca AB, priority 2019, published 2022) come the findings set out here.

This experiment deals with T1, Estrogen Receptor Alpha Ligand binding domain (ER alpha-LBD (GST)) (Homo sapiens, UniProt P03372).
T1 construct: made in house
T1 sequence (P03372 307-554): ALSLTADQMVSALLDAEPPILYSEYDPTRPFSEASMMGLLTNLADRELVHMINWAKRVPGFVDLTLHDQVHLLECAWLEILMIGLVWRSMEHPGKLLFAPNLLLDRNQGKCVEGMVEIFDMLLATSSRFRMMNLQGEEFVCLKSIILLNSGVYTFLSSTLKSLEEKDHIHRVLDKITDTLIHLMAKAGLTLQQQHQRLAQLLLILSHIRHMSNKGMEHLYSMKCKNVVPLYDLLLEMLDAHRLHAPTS
In words: ERα Binding Assay (LanthaScreen TR-FRET competition). The settings on record: competitive displacement of Fluormone ES2 tracer from recombinant human ER alpha-LBD (residues 307-554), 4 hours at room temperature. The protocol: The ability of compounds to bind to isolated Estrogen Receptor Alpha Ligand binding domain (ER alpha-LBD (GST)) was assessed in competition assays using a LanthaScreen™ Time-Resolved Fluorescence Resonance Energy Transfer (TR-FRET) detection end-point. For the LanthaScreen TR-FRET endpoint, a suitable fluorophore (Fluormone ES2, ThermoFisher, Product code P2645) and recombinant human Estrogen Receptor alpha ligand binding domain, residues 307-554 (expressed and purified in-house) were used to measure compound binding. The assay principle is that ER alpha-LBD (GST) is added to a fluorescent ligand to form a receptor/fluorophore complex. A terbium-labelled anti-GST antibody (Product code PV3551) is used to indirectly label the receptor by binding to its GST tag, and competitive binding is detected by a test compound's ability to displace the fluorescent ligand, resulting in a loss of TR-FRET signal between the Th-anti-GST antibody and the tracer. The assay was performed as follows with all reagent additions carried out using the Beckman Coulter BioRAPTR FRD microfluidic workstation: • 1. Acoustic dispense 120 nL of the test compound into a black low volume 384 well assay plates. • 2. Prepare 1×ER alpha-LBD/Tb-anti-GST Ab in ES2 screening buffer and incubate for 15 minutes. • 3. Dispense 6 μL of the 1×[…]/Th-anti-GST Ab reagent into each well of the assay plate followed by 6 μL of Fluorophore reagent into each well of the assay plate • 4. Cover the assay plate to protect the reagents from light and evaporation, and incubate at room temperature for 4 hours. • 5. Excite at 337 nm and measure the fluorescent emission signal of each well at 490 nm and 520 nm using the BMG PheraSTAR.
Compounds were dosed directly from a compound source microplate containing serially diluted compound (4 wells containing 10 mM, […] and 10 nM final compound respectively) to an assay microplate using the Labcyte Echo 550. The Echo 550 is a liquid handler that uses acoustic technology to perform direct microplate-to-microplate transfers of DMSO compound solutions and the system can be programmed to transfer multiple small nL volumes of compound from the different source plate wells to give the desired serial dilution of compound in the assay which is then back-filled to normalise the DMSO concentration across the dilution range.
In total 120 nL of compound plus DMSO were added to each well and compounds were tested in a 12-point concentration response format over a final compound concentration range of 10, 2.917, 1.042, 0.2083, 0.1, 0.0292, 0.0104, 0.002083, 0.001, 0.0002917, 0.0001042, and 0.00001 μM respectively. TR-FRET dose response data obtained with each compound was exported into a suitable software package (such as Origin or Genedata) to perform curve fitting analysis. Competitive ER alpha binding was expressed as an IC50 value. This was determined by calculation of the concentration of compound that was required to give a 50% reduction in tracer compound binding to ER alpha-LBD.

In the case of `COc1cc(N2CCN(CC3CCN(c4ncc([C@@H]5c6[nH]c7ccccc7c6C[C@@H](C)N5CC(C)(C)F)cn4)CC3)CC2)cc2c1C(=O)N(C1CCC(=O)NC1=O)C2` (stereo partly drawn) [Example 39, 3-(5-{4-[(1-{5-[(1R,3R)-2-(2-fluoro-2-methylpropyl)-3-methyl-2,3,4,9-tetrahydro-1H-beta-carbolin-1-yl]pyrimidin-2-yl}piperidin-4-yl)methyl]piperazin-1-yl}-7-methoxy-1-oxo-1,3-dihydro-2H-isoindol-2-yl)piperidine-2,6-dione], the half-maximal inhibitory concentration (IC50) stood at 3.2 nM. The same measure for `C[C@@H]1Cc2c([nH]c3ccccc23)[C@@H](c2cnc(N3CCC4(CCN(CC5CCN(c6ccc7c(c6)CN(C6CCC(=O)NC6=O)C7=O)CC5)CCO4)CC3)nc2)N1CC(C)(C)F` (stereo partly drawn) [Example 18, 3-(5-{4-[(3-{5-[(1R,3R)-2-(2-fluoro-2-methylpropyl)-3-methyl-2,3,4,9-tetrahydro-1H-beta-carbolin-1-yl]pyrimidin-2-yl}-7-oxa-3,10-diazaspiro[5.6]dodecan-10-yl)methyl]piperidin-1-yl}-1-oxo-1,3-dihydro-2H-isoindol-2-yl)piperidine-2,6-dione]: 9.5 nM. Take `C[C@@H]1Cc2c([nH]c3ccccc23)[C@@H](c2cnc(N3CCC(CCCN4CCN(c5ccc6c(c5)CN(C5CCC(=O)NC5=O)C6=O)CC4)CC3)nc2)N1CC(F)(F)F` (stereo partly drawn) [Example 34, 3-(5-{4-[3-(1-{5-[(1R,3R)-3-methyl-2-(2,2,2-trifluoroethyl)-2,3,4,9-tetrahydro-1H-beta-carbolin-1-yl]pyrimidin-2-yl}piperidin-4-yl)propyl]piperazin-1-yl}-1-oxo-1,3-dihydro-2H-isoindol-2-yl)piperidine-2,6-dione]: the IC50 was 7.3 nM.

Regarding `C[C@@H]1Cc2c([nH]c3ccccc23)[C@@H](c2cnc(N3CCC(CN4CCN(c5ccc6c(c5)C(=O)N(C5CCC(=O)NC5=O)C6=O)CC4)CC3)nc2)N1CC(C)(C)F` (stereo partly drawn) [Example 3, 2-[2,6-Dioxo3-piperidyl]-5-[4-[[1-[5-[(1R,3R)-2-(2-fluoro-2-methyl-propyl)-3-methyl-1,3,4,9-tetrahydropyrido[3,4-b]indol-1-yl]pyrimidin-2-yl]-4-piperidyl]methyl]piperazin-1-yl]isoindoline-1,3-dione], the IC50 was 3.7 nM. The figure for `C[C@@H]1Cc2c([nH]c3ccccc23)[C@@H](c2cnc(N3CCC(CN4CCN(CC5CCN(c6ccc7c(c6)CN(C6CCC(=O)NC6=O)C7=O)CC5)CC4)CC3)nc2)N1CC(C)(C)F` (stereo partly shown) [Example 6] is 5.6 nM; for `C[C@@H]1Cc2c([nH]c3ccccc23)[C@@H](c2cnc(OC3CCC4(CC3)CCN(CC3CCN(c5ccc6c(c5)CN(C5CCC(=O)NC5=O)C6=O)CC3)CC4)nc2)N1CC(C)(C)F` (stereo partly drawn) [Example 41, 3-[5-(4-{[9-({5-[(1R,3R)-2-(2-fluoro-2-methylpropyl)-3-methyl-2,3,4,9-tetrahydro-1H-beta-carbolin-1-yl]pyrimidin-2-yl}oxy)-3-azaspiro[5.5]undecan-3-yl]methyl}piperidin-1-yl)-1-oxo-1,3-dihydro-2H-isoindol-2-yl]piperidine-2,6-dione] it is 2.2 nM. The figure for `C[C@@H]1Cc2c([nH]c3ccccc23)[C@@H](c2cnc(N3CCC(CCN4CCN(c5ccc6c(c5)CN(C5CCC(=O)NC5=O)C6=O)CC4)CC3)nc2)N1CC(C)(C)F` (stereo partly drawn) [Example 2, 3-[5-[4-[2-[1-[5-[(1R,3R)-2-(2-Fluoro-2-methyl-propyl)-3-methyl-1,3,4,9-tetrahydropyrido[3,4-b]indol-1-yl]pyrimidin-2-yl]-4-piperidyl]ethyl]piperazin-1-yl]-1-oxo-isoindolin-2-yl]piperidine-2,6-dione] is 3.3 nM; for `COc1cc(N2CCN(CCC3CCN(c4ncc([C@@H]5c6[nH]c7ccccc7c6C[C@@H](C)N5CC(C)(C)F)cn4)CC3)CC2)cc2c1C(=O)N(C1CCC(=O)NC1=O)C2` (stereo partly drawn) [Example 12, 3-(5-{4-[2-(1-{5-[(1R,3R)-2-(2-fluoro-2-methylpropyl)-3-methyl-2,3,4,9-tetrahydro-1H-beta-carbolin-1-yl]pyrimidin-2-yl}piperidin-4-yl)ethyl]piperazin-1-yl}-7-methoxy-1-oxo-1,3-dihydro-2H-isoindol-2-yl)piperidine-2,6-dione] it is 1.5 nM; for `C[C@@H]1Cc2c([nH]c3ccccc23)[C@@H](c2cnc(N3CCC4(CCN(CC5CCN(c6ccc7c(c6)CN(C6CCC(=O)NC6=O)C7=O)CC5)CC4)CC3)nc2)N1CC(C)(C)F` (stereo partly drawn) [Example 9, 3-(5-{4-[(9-{5-[(1R,3R)-2-(2-fluoro-2-methylpropyl)-3-methyl-2,3,4,9-tetrahydro-1H-beta-carbolin-1-yl]pyrimidin-2-yl}-3,9-diazaspiro[5.5]undecan-3-yl)methyl]piperidin-1-yl}-1-oxo-1,3-dihydro-2H-isoindol-2-yl)piperidine-2,6-dione] it is 8.7 nM. The same measure for `C[C@@H]1Cc2c([nH]c3ccccc23)[C@@H](c2cnc(N3CC(CCN4CCN(c5ccc6c(c5)CN(C5CCC(=O)NC5=O)C6=O)CC4)C3)nc2)N1CC(C)(C)F` (stereo partly drawn) [Example 37, 3-(5-{4-[2-(1-{5-[(1R,3R)-2-(2-fluoro-2-methylpropyl)-3-methyl-2,3,4,9-tetrahydro-1H-beta-carbolin-1-yl]pyrimidin-2-yl}azetidin-3-yl)ethyl]piperazin-1-yl}-1-oxo-1,3-dihydro-2H-isoindol-2-yl)piperidine-2,6-dione]: 3.3 nM; for `C[C@@H]1Cc2c([nH]c3ccccc23)[C@@H](c2cnc(N3CCC(CN4CCN(c5ccc6c(c5)CN(C5CCC(=O)NC5=O)C6=O)CC4)CC3)nc2)N1CC(C)(C)F` (stereo partly drawn) [Example 1, 3-[5-[4-[[1-[5-[(1R,3R)-2-(2-Fluoro-2-methyl-propyl)-3-methyl-1,3,4,9-tetrahydropyrido[3,4-b]indol-1-yl]pyrimidin-2-yl]-4-piperidyl]methyl]piperazin-1-yl]-1-oxo-isoindolin-2-yl]piperidine-2,6-dione]: 3.1 nM. Take `C[C@@H]1Cc2c([nH]c3ccccc23)[C@@H](c2cnc(OCCCCCN3CCN(c4ccc5c(c4)CN(C4CCC(=O)NC4=O)C5=O)CC3)nc2)N1CC(C)(C)F` (stereo partly drawn) [Example 40, 3-(5-{4-[5-({5-[(1R,3R)-2-(2-fluoro-2-methylpropyl)-3-methyl-2,3,4,9-tetrahydro-1H-beta-carbolin-1-yl]pyrimidin-2-yl}oxy)pentyl]piperazin-1-yl}-1-oxo-1,3-dihydro-2H-isoindol-2-yl)piperidine-2,6-dione]: the half-inhibitory concentration (IC50) was determined as 7 nM.

Consider `C[C@@H]1Cc2c([nH]c3ccccc23)[C@@H](c2cnc(N3CCC(CCN4CCOC5(CC4)CCN(c4ccc6c(c4)CN(C4CCC(=O)NC4=O)C6=O)CC5)CC3)nc2)N1CC(C)(C)F` (stereo partly drawn) [Example 20, 3-(5-{10-[2-(1-{5-[(1R,3R)-2-(2-fluoro-2-methylpropyl)-3-methyl-2,3,4,9-tetrahydro-1H-beta-carbolin-1-yl]pyrimidin-2-yl}piperidin-4-yl)ethyl]-7-oxa-3,10-diazaspiro[5.6]dodecan-3-yl}-1-oxo-1,3-dihydro-2H-isoindol-2-yl)piperidine-2,6-dione], for which the IC50 was found to be 2 nM.
